Each molecule was assayed on HCC1937 (assay: normalised response (% of control), CellTiter-Glo; higher = more viable cells (100 = DMSO, 0 = benzethonium chloride kill control)). Conditions: incubation time: 72 h.
Method: (§1)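 DSRT, 72 h incubation, CellTox Green / CellTiter-Glo readout. Signal is normalised to DMSO and benzethonium chloride controls. Value is the normalised response at dose 3.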

Point of comparison: `O=P1(NCCCl)OCCCN1CCCl` (stereo not given) [Ifosfamide] (100 nM), normalised response 98.2%. Against it:
- CCCCCCCCCCCCCCCCCCOP(=O)([O-])OC1CC[N+](C)(C)CC1 [Perifosine] (25 nM) — higher, 103%
- C=C(c1ccc(C(=O)O)cc1)c1cc2c(cc1C)C(C)(C)CCC2(C)C [Bexarotene] (100 nM) — higher, 100%
- CS(=O)(=O)c1ccc(C2=C(c3ccccc3)C(=O)OC2)cc1 [Rofecoxib] (100 nM) — lower, 95.8%
- COc1cc2nccc(Oc3ccc(NC(=O)C4(C(=O)Nc5ccc(F)cc5)CC4)cc3)c2cc1OC [Cabozantinib] (10 nM) — lower, 94.6%
- Oc1nc(-c2ccc(C(F)(F)F)cc2)nc2c1CSCC2 [XAV-939] (100 nM) — lower, 92.9%
- CN(N=O)C(=O)N[C@@H](C=O)[C@@H](O)[C@H](O)[C@H](O)CO [Streptozocin] (100 nM) — higher, 99.8%
- Cn1c(Nc2ccc(C(F)(F)F)cc2)nc2cc(Oc3ccnc(-c4ncc(C(F)(F)F)[nH]4)c3)ccc21 [RAF265] (10 nM) — higher, 100%
- CC1(C)NC(=O)N(c2ccc([N+](=O)[O-])c(C(F)(F)F)c2)C1=O [Nilutamide] (100 nM) — higher, 98.4%

Each molecule was assayed on CAL-51 in the same assay as above. Conditions: incubation time: 72 h.
Method: as §1

Point of comparison: `C=C(c1ccc(C(=O)O)cc1)c1cc2c(cc1C)C(C)(C)CCC2(C)C` [Bexarotene] (100 nM), normalised response 80.1%. Against it:
- CCCCCCCCCCCCCCCCCCOP(=O)([O-])OC1CC[N+](C)(C)CC1 [Perifosine] (25 nM) — higher, 96.8%
- CS(=O)(=O)c1ccc(C2=C(c3ccccc3)C(=O)OC2)cc1 [Rofecoxib] (100 nM) — higher, 105%
- COc1cc2nccc(Oc3ccc(NC(=O)C4(C(=O)Nc5ccc(F)cc5)CC4)cc3)c2cc1OC [Cabozantinib] (10 nM) — higher, 111%
- Oc1nc(-c2ccc(C(F)(F)F)cc2)nc2c1CSCC2 [XAV-939] (100 nM) — lower, 77.1%
- CN(N=O)C(=O)N[C@@H](C=O)[C@@H](O)[C@H](O)[C@H](O)CO [Streptozocin] (100 nM) — higher, 106%
- Cn1c(Nc2ccc(C(F)(F)F)cc2)nc2cc(Oc3ccnc(-c4ncc(C(F)(F)F)[nH]4)c3)ccc21 [RAF265] (10 nM) — higher, 83.3%
- O=P1(NCCCl)OCCCN1CCCl (stereo not given) [Ifosfamide] (100 nM) — lower, 68.5%
- CC1(C)NC(=O)N(c2ccc([N+](=O)[O-])c(C(F)(F)F)c2)C1=O [Nilutamide] (100 nM) — higher, 109%

These molecules were tested on MDA-MB-436 in the same assay as above. Conditions: incubation time: 72 h.
Method: as §1

Point of comparison: `CN(N=O)C(=O)N[C@@H](C=O)[C@@H](O)[C@H](O)[C@H](O)CO` [Streptozocin] (100 nM), normalised response 101%. Against it:
- CCCCCCCCCCCCCCCCCCOP(=O)([O-])OC1CC[N+](C)(C)CC1 [Perifosine] (25 nM) — higher, 104%
- C=C(c1ccc(C(=O)O)cc1)c1cc2c(cc1C)C(C)(C)CCC2(C)C [Bexarotene] (100 nM) — lower, 98%
- CS(=O)(=O)c1ccc(C2=C(c3ccccc3)C(=O)OC2)cc1 [Rofecoxib] (100 nM) — higher, 105%
- COc1cc2nccc(Oc3ccc(NC(=O)C4(C(=O)Nc5ccc(F)cc5)CC4)cc3)c2cc1OC [Cabozantinib] (10 nM) — higher, 105%
- Oc1nc(-c2ccc(C(F)(F)F)cc2)nc2c1CSCC2 [XAV-939] (100 nM) — higher, 102%
- Cn1c(Nc2ccc(C(F)(F)F)cc2)nc2cc(Oc3ccnc(-c4ncc(C(F)(F)F)[nH]4)c3)ccc21 [RAF265] (10 nM) — higher, 109%
- O=P1(NCCCl)OCCCN1CCCl (stereo not given) [Ifosfamide] (100 nM) — lower, 94.9%
- CC1(C)NC(=O)N(c2ccc([N+](=O)[O-])c(C(F)(F)F)c2)C1=O [Nilutamide] (100 nM) — higher, 102%

The molecules below were run on DU-4475 in the same assay as above. Conditions: incubation time: 72 h.
Method: as §1

Point of comparison: `CN(N=O)C(=O)N[C@@H](C=O)[C@@H](O)[C@H](O)[C@H](O)CO` [Streptozocin] (100 nM), normalised response 102%. Against it:
- CCCCCCCCCCCCCCCCCCOP(=O)([O-])OC1CC[N+](C)(C)CC1 [Perifosine] (25 nM) — lower, 96%
- C=C(c1ccc(C(=O)O)cc1)c1cc2c(cc1C)C(C)(C)CCC2(C)C [Bexarotene] (100 nM) — higher, 104%
- CS(=O)(=O)c1ccc(C2=C(c3ccccc3)C(=O)OC2)cc1 [Rofecoxib] (100 nM) — the same, 102%
- COc1cc2nccc(Oc3ccc(NC(=O)C4(C(=O)Nc5ccc(F)cc5)CC4)cc3)c2cc1OC [Cabozantinib] (10 nM) — lower, 100%
- Oc1nc(-c2ccc(C(F)(F)F)cc2)nc2c1CSCC2 [XAV-939] (100 nM) — lower, 99.8%
- Cn1c(Nc2ccc(C(F)(F)F)cc2)nc2cc(Oc3ccnc(-c4ncc(C(F)(F)F)[nH]4)c3)ccc21 [RAF265] (10 nM) — higher, 105%
- O=P1(NCCCl)OCCCN1CCCl (stereo not given) [Ifosfamide] (100 nM) — lower, 95.3%
- CC1(C)NC(=O)N(c2ccc([N+](=O)[O-])c(C(F)(F)F)c2)C1=O [Nilutamide] (100 nM) — higher, 103%

What follows are molecules tested on BT-474 in the same assay as above. Conditions: incubation time: 72 h.
Method: as §1

Point of comparison: `CS(=O)(=O)c1ccc(C2=C(c3ccccc3)C(=O)OC2)cc1` [Rofecoxib] (100 nM), normalised response 101%. Against it:
- CCCCCCCCCCCCCCCCCCOP(=O)([O-])OC1CC[N+](C)(C)CC1 [Perifosine] (25 nM) — the same, 101%
- C=C(c1ccc(C(=O)O)cc1)c1cc2c(cc1C)C(C)(C)CCC2(C)C [Bexarotene] (100 nM) — higher, 109%
- COc1cc2nccc(Oc3ccc(NC(=O)C4(C(=O)Nc5ccc(F)cc5)CC4)cc3)c2cc1OC [Cabozantinib] (10 nM) — lower, 93.9%
- Oc1nc(-c2ccc(C(F)(F)F)cc2)nc2c1CSCC2 [XAV-939] (100 nM) — lower, 93.2%
- CN(N=O)C(=O)N[C@@H](C=O)[C@@H](O)[C@H](O)[C@H](O)CO [Streptozocin] (100 nM) — higher, 102%
- Cn1c(Nc2ccc(C(F)(F)F)cc2)nc2cc(Oc3ccnc(-c4ncc(C(F)(F)F)[nH]4)c3)ccc21 [RAF265] (10 nM) — higher, 107%
- O=P1(NCCCl)OCCCN1CCCl (stereo not given) [Ifosfamide] (100 nM) — lower, 97%
- CC1(C)NC(=O)N(c2ccc([N+](=O)[O-])c(C(F)(F)F)c2)C1=O [Nilutamide] (100 nM) — higher, 105%

What follows are molecules tested on MDA-MB-453 in the same assay as above. Conditions: incubation time: 72 h.
Method: as §1

Point of comparison: `CN(N=O)C(=O)N[C@@H](C=O)[C@@H](O)[C@H](O)[C@H](O)CO` [Streptozocin] (100 nM), normalised response 103%. Against it:
- CCCCCCCCCCCCCCCCCCOP(=O)([O-])OC1CC[N+](C)(C)CC1 [Perifosine] (25 nM) — lower, 87%
- C=C(c1ccc(C(=O)O)cc1)c1cc2c(cc1C)C(C)(C)CCC2(C)C [Bexarotene] (100 nM) — higher, 117%
- CS(=O)(=O)c1ccc(C2=C(c3ccccc3)C(=O)OC2)cc1 [Rofecoxib] (100 nM) — higher, 108%
- COc1cc2nccc(Oc3ccc(NC(=O)C4(C(=O)Nc5ccc(F)cc5)CC4)cc3)c2cc1OC [Cabozantinib] (10 nM) — lower, 100%
- Oc1nc(-c2ccc(C(F)(F)F)cc2)nc2c1CSCC2 [XAV-939] (100 nM) — lower, 98.2%
- Cn1c(Nc2ccc(C(F)(F)F)cc2)nc2cc(Oc3ccnc(-c4ncc(C(F)(F)F)[nH]4)c3)ccc21 [RAF265] (10 nM) — higher, 106%
- O=P1(NCCCl)OCCCN1CCCl (stereo not given) [Ifosfamide] (100 nM) — lower, 88.8%
- CC1(C)NC(=O)N(c2ccc([N+](=O)[O-])c(C(F)(F)F)c2)C1=O [Nilutamide] (100 nM) — the same, 103%

These molecules were tested on SK-BR-3 in the same assay as above. Conditions: incubation time: 72 h.
Method: as §1

Point of comparison: `O=P1(NCCCl)OCCCN1CCCl` (stereo not given) [Ifosfamide] (100 nM), normalised response 89.5%. Against it:
- CCCCCCCCCCCCCCCCCCOP(=O)([O-])OC1CC[N+](C)(C)CC1 [Perifosine] (25 nM) — higher, 91.3%
- C=C(c1ccc(C(=O)O)cc1)c1cc2c(cc1C)C(C)(C)CCC2(C)C [Bexarotene] (100 nM) — lower, 88.6%
- CS(=O)(=O)c1ccc(C2=C(c3ccccc3)C(=O)OC2)cc1 [Rofecoxib] (100 nM) — higher, 110%
- COc1cc2nccc(Oc3ccc(NC(=O)C4(C(=O)Nc5ccc(F)cc5)CC4)cc3)c2cc1OC [Cabozantinib] (10 nM) — higher, 94.3%
- Oc1nc(-c2ccc(C(F)(F)F)cc2)nc2c1CSCC2 [XAV-939] (100 nM) — higher, 99.1%
- CN(N=O)C(=O)N[C@@H](C=O)[C@@H](O)[C@H](O)[C@H](O)CO [Streptozocin] (100 nM) — higher, 102%
- Cn1c(Nc2ccc(C(F)(F)F)cc2)nc2cc(Oc3ccnc(-c4ncc(C(F)(F)F)[nH]4)c3)ccc21 [RAF265] (10 nM) — higher, 108%
- CC1(C)NC(=O)N(c2ccc([N+](=O)[O-])c(C(F)(F)F)c2)C1=O [Nilutamide] (100 nM) — higher, 109%

These molecules were tested on Hs578T in the same assay as above. Conditions: incubation time: 72 h.
Method: as §1

Point of comparison: `O=P1(NCCCl)OCCCN1CCCl` (stereo not given) [Ifosfamide] (100 nM), normalised response 96.8%. Against it:
- CCCCCCCCCCCCCCCCCCOP(=O)([O-])OC1CC[N+](C)(C)CC1 [Perifosine] (25 nM) — higher, 100%
- C=C(c1ccc(C(=O)O)cc1)c1cc2c(cc1C)C(C)(C)CCC2(C)C [Bexarotene] (100 nM) — lower, 95.9%
- CS(=O)(=O)c1ccc(C2=C(c3ccccc3)C(=O)OC2)cc1 [Rofecoxib] (100 nM) — higher, 109%
- COc1cc2nccc(Oc3ccc(NC(=O)C4(C(=O)Nc5ccc(F)cc5)CC4)cc3)c2cc1OC [Cabozantinib] (10 nM) — higher, 99.3%
- Oc1nc(-c2ccc(C(F)(F)F)cc2)nc2c1CSCC2 [XAV-939] (100 nM) — higher, 101%
- CN(N=O)C(=O)N[C@@H](C=O)[C@@H](O)[C@H](O)[C@H](O)CO [Streptozocin] (100 nM) — higher, 109%
- Cn1c(Nc2ccc(C(F)(F)F)cc2)nc2cc(Oc3ccnc(-c4ncc(C(F)(F)F)[nH]4)c3)ccc21 [RAF265] (10 nM) — higher, 106%
- CC1(C)NC(=O)N(c2ccc([N+](=O)[O-])c(C(F)(F)F)c2)C1=O [Nilutamide] (100 nM) — higher, 103%

Each molecule was assayed on MFM-223 in the same assay as above. Conditions: incubation time: 72 h.
Method: as §1

Point of comparison: `Cn1c(Nc2ccc(C(F)(F)F)cc2)nc2cc(Oc3ccnc(-c4ncc(C(F)(F)F)[nH]4)c3)ccc21` [RAF265] (10 nM), normalised response 105%. Against it:
- CCCCCCCCCCCCCCCCCCOP(=O)([O-])OC1CC[N+](C)(C)CC1 [Perifosine] (25 nM) — lower, 93.4%
- C=C(c1ccc(C(=O)O)cc1)c1cc2c(cc1C)C(C)(C)CCC2(C)C [Bexarotene] (100 nM) — higher, 108%
- CS(=O)(=O)c1ccc(C2=C(c3ccccc3)C(=O)OC2)cc1 [Rofecoxib] (100 nM) — lower, 104%
- COc1cc2nccc(Oc3ccc(NC(=O)C4(C(=O)Nc5ccc(F)cc5)CC4)cc3)c2cc1OC [Cabozantinib] (10 nM) — lower, 99.4%
- Oc1nc(-c2ccc(C(F)(F)F)cc2)nc2c1CSCC2 [XAV-939] (100 nM) — lower, 97%
- CN(N=O)C(=O)N[C@@H](C=O)[C@@H](O)[C@H](O)[C@H](O)CO [Streptozocin] (100 nM) — lower, 103%
- O=P1(NCCCl)OCCCN1CCCl (stereo not given) [Ifosfamide] (100 nM) — lower, 91.2%

— the supplement of paper PMC4862054
